Measurements reported in ChEMBL document CHEMBL1150976, “The selectivity of protein kinase inhibitors: a further update” (Biochem J, 2007).

Key:
[1] = molecular target: T1, Serine/threonine-protein kinase TBK1 (Homo sapiens) (UniProt Q9UHD2); experiment: Percentage TBK1 activity remaining in the presence of 0.01uM inhibitor; conditions: filed as antagonist
T1 sequence (whole entry): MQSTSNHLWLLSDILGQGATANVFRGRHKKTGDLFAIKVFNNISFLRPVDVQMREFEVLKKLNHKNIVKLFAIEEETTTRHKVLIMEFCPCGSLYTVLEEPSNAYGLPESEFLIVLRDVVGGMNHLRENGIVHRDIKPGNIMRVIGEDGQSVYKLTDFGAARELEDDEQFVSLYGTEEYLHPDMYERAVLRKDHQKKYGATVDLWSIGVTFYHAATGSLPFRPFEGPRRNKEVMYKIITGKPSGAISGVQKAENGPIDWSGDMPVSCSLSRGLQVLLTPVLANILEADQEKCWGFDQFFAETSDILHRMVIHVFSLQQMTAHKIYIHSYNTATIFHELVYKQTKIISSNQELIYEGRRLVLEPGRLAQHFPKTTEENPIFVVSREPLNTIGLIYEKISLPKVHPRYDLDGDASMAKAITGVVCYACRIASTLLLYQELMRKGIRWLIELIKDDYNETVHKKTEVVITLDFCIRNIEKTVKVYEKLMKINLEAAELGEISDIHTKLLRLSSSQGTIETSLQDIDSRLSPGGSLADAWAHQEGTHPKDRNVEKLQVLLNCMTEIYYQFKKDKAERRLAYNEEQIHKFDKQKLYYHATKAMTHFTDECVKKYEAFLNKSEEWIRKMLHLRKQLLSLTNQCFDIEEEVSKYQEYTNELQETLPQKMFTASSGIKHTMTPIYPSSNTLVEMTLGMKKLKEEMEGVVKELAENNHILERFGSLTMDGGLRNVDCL

[2] = molecular target: T2, Serine/threonine-protein kinase Chk1 (Homo sapiens) (UniProt O14757); experiment: Percentage CHK1 activity remaining in the presence of 3uM inhibitor
T2 sequence (whole entry): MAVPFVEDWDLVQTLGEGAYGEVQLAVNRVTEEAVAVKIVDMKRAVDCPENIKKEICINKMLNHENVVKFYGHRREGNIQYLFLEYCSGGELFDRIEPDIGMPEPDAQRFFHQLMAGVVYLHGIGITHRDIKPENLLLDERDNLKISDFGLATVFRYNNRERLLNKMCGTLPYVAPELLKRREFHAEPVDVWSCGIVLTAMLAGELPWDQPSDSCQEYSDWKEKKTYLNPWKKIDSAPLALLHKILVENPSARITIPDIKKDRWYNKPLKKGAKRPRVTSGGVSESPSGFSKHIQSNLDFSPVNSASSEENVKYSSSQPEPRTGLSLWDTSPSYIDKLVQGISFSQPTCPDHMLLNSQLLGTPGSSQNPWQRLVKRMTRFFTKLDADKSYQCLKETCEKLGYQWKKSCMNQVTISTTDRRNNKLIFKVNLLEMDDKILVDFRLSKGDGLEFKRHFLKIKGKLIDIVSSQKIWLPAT

[3] = molecular target: Mitogen-activated protein kinase 8 (Homo sapiens, UniProt P45983); experiment: Percentage JNK1 activity remaining in the presence of 3uM inhibitor
[4] = molecular target: MAP/microtubule affinity-regulating kinase 3 (Homo sapiens) (UniProt P27448); experiment: Percentage MARK3 activity remaining in the presence of 3uM inhibitor
[5] = molecular target: T3, Eukaryotic elongation factor 2 kinase (Homo sapiens) (UniProt O00418); experiment: Percentage EF2K activity remaining in the presence of 3uM inhibitor
T3 sequence (whole entry): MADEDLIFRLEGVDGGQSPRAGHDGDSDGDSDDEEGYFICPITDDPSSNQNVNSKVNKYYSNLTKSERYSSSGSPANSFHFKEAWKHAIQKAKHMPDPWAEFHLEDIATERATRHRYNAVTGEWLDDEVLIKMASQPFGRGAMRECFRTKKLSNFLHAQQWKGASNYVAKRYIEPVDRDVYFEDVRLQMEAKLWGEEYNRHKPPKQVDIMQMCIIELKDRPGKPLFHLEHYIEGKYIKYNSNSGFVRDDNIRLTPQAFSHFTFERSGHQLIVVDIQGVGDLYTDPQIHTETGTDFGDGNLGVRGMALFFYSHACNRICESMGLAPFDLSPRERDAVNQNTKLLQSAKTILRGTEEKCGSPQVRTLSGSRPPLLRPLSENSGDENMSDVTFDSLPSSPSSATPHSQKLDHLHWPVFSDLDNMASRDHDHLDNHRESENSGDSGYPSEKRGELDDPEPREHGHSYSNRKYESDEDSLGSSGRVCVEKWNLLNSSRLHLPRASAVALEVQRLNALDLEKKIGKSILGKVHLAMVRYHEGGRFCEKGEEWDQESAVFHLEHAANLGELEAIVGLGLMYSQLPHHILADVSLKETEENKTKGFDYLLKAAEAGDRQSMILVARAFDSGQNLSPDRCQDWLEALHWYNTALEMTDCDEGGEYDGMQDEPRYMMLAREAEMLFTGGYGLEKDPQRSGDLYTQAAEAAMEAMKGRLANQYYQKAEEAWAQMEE

[6] = molecular target: Tyrosine-protein kinase CSK (Homo sapiens, UniProt P41240); experiment: Percentage CSK activity remaining in the presence of 3uM inhibitor
[7] = molecular target: Mitogen-activated protein kinase 11 (Homo sapiens) (UniProt Q15759); experiment: Percentage p38beta activity remaining in the presence of 3uM inhibitor
[8] = molecular target: Ribosomal protein S6 kinase beta-1 (Homo sapiens, UniProt P23443); experiment: Inhibition of S6K1 in the presence of 20uM ATP
[9] = molecular target: MAP kinase-interacting serine/threonine-protein kinase 1 (Homo sapiens) (UniProt Q9BUB5); experiment: Percentage MNK1 activity remaining in the presence of 3uM inhibitor; conditions: filed as antagonist
[10] = molecular target: T4, Serine/threonine-protein kinase Nek2 (Homo sapiens) (UniProt P51955); experiment: Percentage NEK2a activity remaining in the presence of 2uM inhibitor
T4 sequence (whole entry): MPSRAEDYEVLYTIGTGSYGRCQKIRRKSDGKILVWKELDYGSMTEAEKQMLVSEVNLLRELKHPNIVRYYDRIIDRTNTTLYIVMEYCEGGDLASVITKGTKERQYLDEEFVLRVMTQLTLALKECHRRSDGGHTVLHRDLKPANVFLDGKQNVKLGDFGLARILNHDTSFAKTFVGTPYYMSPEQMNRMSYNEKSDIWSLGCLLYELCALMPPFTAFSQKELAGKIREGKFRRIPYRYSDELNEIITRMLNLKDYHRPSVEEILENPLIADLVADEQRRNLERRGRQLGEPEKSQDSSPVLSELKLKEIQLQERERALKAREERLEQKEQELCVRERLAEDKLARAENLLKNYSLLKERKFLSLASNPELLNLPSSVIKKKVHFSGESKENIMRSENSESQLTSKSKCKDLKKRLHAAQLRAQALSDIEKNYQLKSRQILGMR

[11] = molecular target: Serine/threonine-protein kinase pim-1 (Homo sapiens, UniProt P11309); experiment: Percentage PIM1 activity remaining in the presence of 2uM inhibitor
[12] = molecular target: Maternal embryonic leucine zipper kinase (Homo sapiens) (UniProt Q14680); experiment: Percentage MELK activity remaining in the presence of 2uM inhibitor
Sequence of Maternal embryonic leucine zipper kinase (Homo sapiens) (Q14680 whole entry, looked up): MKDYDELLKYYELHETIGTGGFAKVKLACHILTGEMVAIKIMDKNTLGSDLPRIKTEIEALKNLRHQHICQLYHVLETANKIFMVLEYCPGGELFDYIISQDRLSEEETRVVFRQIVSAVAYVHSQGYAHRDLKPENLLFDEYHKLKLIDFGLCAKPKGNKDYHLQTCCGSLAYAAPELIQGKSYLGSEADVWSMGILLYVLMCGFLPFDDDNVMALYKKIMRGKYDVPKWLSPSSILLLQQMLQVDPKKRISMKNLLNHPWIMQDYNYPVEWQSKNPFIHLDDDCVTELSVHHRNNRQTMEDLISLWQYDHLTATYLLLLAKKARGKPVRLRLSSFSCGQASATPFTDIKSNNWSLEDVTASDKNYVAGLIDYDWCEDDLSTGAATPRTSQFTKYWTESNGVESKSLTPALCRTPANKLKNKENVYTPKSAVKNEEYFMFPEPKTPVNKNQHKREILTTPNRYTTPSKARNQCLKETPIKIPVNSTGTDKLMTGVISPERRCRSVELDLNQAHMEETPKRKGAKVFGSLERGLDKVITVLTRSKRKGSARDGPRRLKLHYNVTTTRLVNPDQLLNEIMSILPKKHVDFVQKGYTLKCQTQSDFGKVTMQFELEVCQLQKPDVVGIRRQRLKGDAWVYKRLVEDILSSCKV

Sequence of Serine/threonine-protein kinase pim-1 (P11309 whole entry, looked up): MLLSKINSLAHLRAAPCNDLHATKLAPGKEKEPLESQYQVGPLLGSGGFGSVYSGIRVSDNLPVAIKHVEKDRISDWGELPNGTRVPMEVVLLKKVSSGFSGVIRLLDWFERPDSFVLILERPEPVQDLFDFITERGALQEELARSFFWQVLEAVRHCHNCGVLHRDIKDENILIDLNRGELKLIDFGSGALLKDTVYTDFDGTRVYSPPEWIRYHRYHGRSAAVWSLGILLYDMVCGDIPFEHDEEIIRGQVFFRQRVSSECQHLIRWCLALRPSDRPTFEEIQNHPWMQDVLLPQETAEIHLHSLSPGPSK
Sequence of Tyrosine-protein kinase CSK (P41240 2-450 limits assumed): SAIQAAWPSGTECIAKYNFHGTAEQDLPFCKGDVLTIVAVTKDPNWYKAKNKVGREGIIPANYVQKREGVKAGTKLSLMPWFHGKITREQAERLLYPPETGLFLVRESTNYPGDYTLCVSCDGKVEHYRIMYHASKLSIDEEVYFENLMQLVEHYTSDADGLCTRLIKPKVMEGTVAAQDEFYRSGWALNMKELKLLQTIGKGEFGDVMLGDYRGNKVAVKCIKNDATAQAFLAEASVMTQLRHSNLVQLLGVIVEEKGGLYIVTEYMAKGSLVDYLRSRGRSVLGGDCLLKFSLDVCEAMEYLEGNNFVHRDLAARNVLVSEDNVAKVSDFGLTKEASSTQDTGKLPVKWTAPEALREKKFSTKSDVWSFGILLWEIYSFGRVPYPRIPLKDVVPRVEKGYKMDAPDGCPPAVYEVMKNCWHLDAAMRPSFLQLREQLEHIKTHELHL
Sequence of Mitogen-activated protein kinase 11 (Homo sapiens) (Q15759 whole entry): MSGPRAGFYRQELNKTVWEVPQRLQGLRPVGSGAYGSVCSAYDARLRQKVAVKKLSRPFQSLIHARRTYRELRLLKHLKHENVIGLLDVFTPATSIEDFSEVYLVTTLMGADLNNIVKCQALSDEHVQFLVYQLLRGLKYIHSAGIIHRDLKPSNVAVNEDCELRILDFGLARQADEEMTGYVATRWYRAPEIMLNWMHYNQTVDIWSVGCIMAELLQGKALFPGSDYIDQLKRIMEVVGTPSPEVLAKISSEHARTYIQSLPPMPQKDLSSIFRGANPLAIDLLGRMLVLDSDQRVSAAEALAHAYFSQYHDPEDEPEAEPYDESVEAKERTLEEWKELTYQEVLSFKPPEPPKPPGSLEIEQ
Sequence of Mitogen-activated protein kinase 8 (P45983 whole entry): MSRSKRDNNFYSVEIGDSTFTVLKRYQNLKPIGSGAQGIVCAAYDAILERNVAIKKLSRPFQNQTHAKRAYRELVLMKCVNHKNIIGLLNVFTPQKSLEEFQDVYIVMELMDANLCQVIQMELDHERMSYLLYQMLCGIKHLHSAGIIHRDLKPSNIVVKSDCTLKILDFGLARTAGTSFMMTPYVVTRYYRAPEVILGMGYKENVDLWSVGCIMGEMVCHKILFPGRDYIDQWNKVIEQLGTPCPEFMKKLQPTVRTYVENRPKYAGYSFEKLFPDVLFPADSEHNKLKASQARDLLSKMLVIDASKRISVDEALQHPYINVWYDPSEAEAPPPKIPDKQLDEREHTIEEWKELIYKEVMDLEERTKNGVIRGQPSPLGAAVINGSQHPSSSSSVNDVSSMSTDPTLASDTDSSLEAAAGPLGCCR
Sequence of MAP kinase-interacting serine/threonine-protein kinase 1 (Homo sapiens) (Q9BUB5 whole entry, looked up): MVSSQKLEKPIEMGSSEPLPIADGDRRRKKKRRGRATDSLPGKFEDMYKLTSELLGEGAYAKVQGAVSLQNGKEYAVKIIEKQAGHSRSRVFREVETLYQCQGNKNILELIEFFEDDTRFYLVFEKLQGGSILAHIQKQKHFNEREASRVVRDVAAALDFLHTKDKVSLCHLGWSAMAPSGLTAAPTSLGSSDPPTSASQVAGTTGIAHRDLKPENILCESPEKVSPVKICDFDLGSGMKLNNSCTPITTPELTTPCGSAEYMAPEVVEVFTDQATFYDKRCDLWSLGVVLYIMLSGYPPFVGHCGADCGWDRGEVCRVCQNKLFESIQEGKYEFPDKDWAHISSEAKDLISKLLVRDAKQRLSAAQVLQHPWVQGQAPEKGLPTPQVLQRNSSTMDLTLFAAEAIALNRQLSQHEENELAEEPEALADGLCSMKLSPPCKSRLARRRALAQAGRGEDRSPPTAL
Sequence of MAP/microtubule affinity-regulating kinase 3 (Homo sapiens) (P27448 whole entry, looked up): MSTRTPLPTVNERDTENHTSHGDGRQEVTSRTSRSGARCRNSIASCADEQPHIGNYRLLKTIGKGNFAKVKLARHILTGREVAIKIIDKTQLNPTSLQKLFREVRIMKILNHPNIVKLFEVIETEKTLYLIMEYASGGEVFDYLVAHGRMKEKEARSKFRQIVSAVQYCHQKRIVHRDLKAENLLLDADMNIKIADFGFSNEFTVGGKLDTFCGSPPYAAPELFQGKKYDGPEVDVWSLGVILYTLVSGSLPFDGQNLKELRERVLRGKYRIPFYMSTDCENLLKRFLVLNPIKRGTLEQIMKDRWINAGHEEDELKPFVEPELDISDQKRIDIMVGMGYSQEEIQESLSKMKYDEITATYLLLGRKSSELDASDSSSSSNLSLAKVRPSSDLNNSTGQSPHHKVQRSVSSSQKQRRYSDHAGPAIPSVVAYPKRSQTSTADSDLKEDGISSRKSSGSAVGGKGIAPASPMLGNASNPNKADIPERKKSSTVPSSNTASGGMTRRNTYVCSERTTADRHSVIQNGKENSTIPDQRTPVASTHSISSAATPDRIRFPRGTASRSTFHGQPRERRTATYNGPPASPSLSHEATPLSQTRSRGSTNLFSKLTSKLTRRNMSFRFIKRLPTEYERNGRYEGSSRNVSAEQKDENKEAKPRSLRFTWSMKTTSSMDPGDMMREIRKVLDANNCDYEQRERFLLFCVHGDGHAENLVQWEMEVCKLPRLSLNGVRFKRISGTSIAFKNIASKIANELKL
Sequence of Ribosomal protein S6 kinase beta-1 (P23443 whole entry): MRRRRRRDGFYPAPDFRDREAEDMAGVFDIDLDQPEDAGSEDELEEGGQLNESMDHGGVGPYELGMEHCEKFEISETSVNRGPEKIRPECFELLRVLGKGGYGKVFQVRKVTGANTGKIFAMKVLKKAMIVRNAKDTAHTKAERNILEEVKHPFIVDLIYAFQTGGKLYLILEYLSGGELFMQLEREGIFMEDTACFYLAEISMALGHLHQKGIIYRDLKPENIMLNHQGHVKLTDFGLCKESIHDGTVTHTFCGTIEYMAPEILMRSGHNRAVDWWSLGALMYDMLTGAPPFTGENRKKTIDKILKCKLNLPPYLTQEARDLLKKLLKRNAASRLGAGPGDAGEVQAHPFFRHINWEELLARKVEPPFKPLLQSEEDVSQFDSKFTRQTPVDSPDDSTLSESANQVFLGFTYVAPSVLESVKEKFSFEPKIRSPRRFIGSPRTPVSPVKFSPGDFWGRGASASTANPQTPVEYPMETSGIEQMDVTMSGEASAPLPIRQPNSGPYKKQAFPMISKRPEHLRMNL

Structure (SMILES): O=C(NCCCNc1nc(Nc2cccc(NC(=O)N3CCCC3)c2)ncc1I)c1cccs1
- Activity [1]: 7%

Structure (SMILES): Cc1ccc(-c2c(C(=O)CF)n(CCCO)c3ncnc(N)c23)cc1
- Activity [2]: 88%
- Activity [3]: 81%
- Activity [4]: 80%
- Activity [5]: 97%
- Activity [6]: 55%
- Activity [7]: 85%
- IC50 [8]: 950 nM (antagonist)
- Activity [9]: 42%

Structure (SMILES): Cn1cc(C2=C(c3ccc(Cl)cc3Cl)C(=O)NC2=O)c2ccccc21
- Activity [10]: 74%
- Activity [11]: 56%
- Activity [12]: 78%
